ChEMBL document CHEMBL3739372 (Bioorg Med Chem, 2015)

Experiment: Inhibition of Influenza B virus neuraminidase R152K mutant

Q: Which IC50 does the source give for `CCOC(=O)c1cn(CC)c2ccc(-n3cc(C4=CCCCC4)nn3)cc2c1=O` here?
A: 30 µM

Q: With `CCOC(=O)C1=C[C@@H](OC(CC)CC)[C@H](NC(C)=O)[C@@H](N)C1` [OSELTAMIVIR] as the molecule, how does the IC50 read?
A: 85 µM
